This note sets out measurements from patent publication US20230131025A1, “QUINOLYL PHOSPHINE OXIDE COMPOUND, AND COMPOSITION AND APPLICATION THEREOF” (Betta Pharmaceuticals Co., Ltd., priority 2020, published 2023).

Assay in all cases: Cell proliferation experiment (CellTiter Glo, 72 hours)
Holding throughout (type): cell-based
Background: ATP-based viability assays read luminescence as a measure of living cells.

Test [1] deals with human epidermal cancer cells A431 carrying EGFR WT. As to conditions: Homo sapiens, A-431. On the procedure:
(§1) Experiment 2 Cell Proliferation Experiment
Adherent cells: human epidermal cancer cells A431 carrying EGFR WT.
(§2) RPMI 1640 with 10% FBS and 1% Penicillin-Streptomycin, or DMEM with 10% FBS and 1% Penicillin-Streptomycin.
(§3) a) Diluting compounds being tested (20 mM stock solutions), as an initial concentration, to 10 mM with 100% DMSO, followed by diluting compounds serially in a 3-fold gradient such that each compound is diluted into 12 concentrations (Cat #P-05525, Labcyte).
(§4) b) Diluting the above compound solutions for 100-fold with culture medium to prepare 10-fold working solution.
(§5) b) Seeding cells into 96-well cell culture plate at a density of 2000 or 3000 cells/well, with 135 μL/well.
(§6) a) Adding the compound prepared in step 2 to the cell plate at 15 μL per well, resulting in a final maximum concentration of 10000 nM or 1111 nM. The compounds is diluted serially in a 3-fold gradient such that each compound is diluted into 9 concentrations, wherein the final concentration of DMSO is 0.1%. Blank control wells are added with medium (0.1% DMSO).
(§7) b) Re-incubating the cells in an incubator for 72 hours. 5. Detection
(§8) a) Adding 50 μL of CTG reagent (CellTiter Glo kit, promega, Cat #G7573) to the 96-well cell culture plate.
(§9) b) Shaking the plate for 2 minutes and reacting at room temperature for 10 minutes.
(§10) c) Reading the luminescence signal value (Lum) using PerkinElmer reader.
(§11) The cell survival inhibition rate of each well was calculated. The data was analyzed by GraphPad Prism 6.0 software. The dose-response curve was obtained by fitting the data with a nonlinear regression equation. The IC50 of each compound was calculated as follows:
(§12) Cell survival inhibition rate (%)=(1−(Lumcompound tested−Lummedium control)/(Lumcell control−Lummedium control))×100%
(§13) Y=Min+(Max−Min)/(1+10^((Log IC50−X)*Slope));
(§14) X: logarithm of compound concentration. Y: cell survival inhibition rate.

The target of another test is Ba/F3-Δ19del/T790M/C797S (Homo sapiens, UniProt P00533, T790M/C797S, cells depend on it, form not given). As to conditions: read-out: Ba/F3/EGFR Δ19del/T790M/C797S IC50. The protocol: as §1
(§15) Suspension cells: Ba/F3 cells with stable overexpression of Δ19del/T790M/C797S mutant gene, named Ba/F3-Δ19del/T790M/C797S; Ba/F3 cells with overexpression of EGFR WT, named Ba/F3 EGFR WT.
as §2, §3, §4, §5, §6, §7, §8, §9, §10, §11, §12, §13, §14

The target of the next test is Ba/F3 EGFR WT (Homo sapiens, UniProt P00533). As to conditions: read-out: BaF3 EGFR WT IC50. On the procedure:
as §1, §15, §2, §3, §4, §5, §6, §7, §8, §9, §10, §11, §12, §13, §14

Ba/F3-Δ19del/T790M/C797S, sequence (P00533 with tags, fused parts or gaps DEL746-750/T790M/C797S, form open): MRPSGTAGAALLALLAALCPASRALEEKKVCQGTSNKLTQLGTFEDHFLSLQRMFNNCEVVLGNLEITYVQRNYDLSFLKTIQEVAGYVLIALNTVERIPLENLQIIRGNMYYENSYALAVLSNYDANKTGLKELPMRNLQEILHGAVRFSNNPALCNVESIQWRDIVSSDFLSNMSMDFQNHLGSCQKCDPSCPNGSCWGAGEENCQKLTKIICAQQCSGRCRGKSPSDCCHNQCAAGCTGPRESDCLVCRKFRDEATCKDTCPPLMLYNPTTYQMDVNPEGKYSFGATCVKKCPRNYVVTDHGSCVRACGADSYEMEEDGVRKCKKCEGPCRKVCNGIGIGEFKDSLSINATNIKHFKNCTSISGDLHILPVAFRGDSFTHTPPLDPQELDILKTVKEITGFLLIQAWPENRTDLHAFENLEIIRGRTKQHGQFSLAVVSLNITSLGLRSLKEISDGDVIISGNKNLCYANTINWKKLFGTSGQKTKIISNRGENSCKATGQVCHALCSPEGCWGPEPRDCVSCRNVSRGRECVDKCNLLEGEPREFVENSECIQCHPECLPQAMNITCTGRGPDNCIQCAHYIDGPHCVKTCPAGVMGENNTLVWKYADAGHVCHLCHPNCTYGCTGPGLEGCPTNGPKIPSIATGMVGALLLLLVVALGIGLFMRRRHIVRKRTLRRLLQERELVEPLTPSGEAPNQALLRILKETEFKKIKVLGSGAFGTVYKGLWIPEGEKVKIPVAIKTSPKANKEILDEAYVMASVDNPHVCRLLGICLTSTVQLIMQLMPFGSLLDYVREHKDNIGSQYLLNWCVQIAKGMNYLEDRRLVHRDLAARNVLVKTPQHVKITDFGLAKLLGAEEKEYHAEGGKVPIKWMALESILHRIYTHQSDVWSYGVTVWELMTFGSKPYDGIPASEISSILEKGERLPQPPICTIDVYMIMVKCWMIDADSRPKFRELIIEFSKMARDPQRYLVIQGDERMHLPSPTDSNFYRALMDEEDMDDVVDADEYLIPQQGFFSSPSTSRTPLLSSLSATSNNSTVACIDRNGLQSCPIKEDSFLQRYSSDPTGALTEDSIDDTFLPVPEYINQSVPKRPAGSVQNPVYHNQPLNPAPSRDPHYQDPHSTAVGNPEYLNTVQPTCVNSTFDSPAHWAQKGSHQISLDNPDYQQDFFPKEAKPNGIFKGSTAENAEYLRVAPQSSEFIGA
Ba/F3 EGFR WT, sequence (P00533 whole entry, change not shown): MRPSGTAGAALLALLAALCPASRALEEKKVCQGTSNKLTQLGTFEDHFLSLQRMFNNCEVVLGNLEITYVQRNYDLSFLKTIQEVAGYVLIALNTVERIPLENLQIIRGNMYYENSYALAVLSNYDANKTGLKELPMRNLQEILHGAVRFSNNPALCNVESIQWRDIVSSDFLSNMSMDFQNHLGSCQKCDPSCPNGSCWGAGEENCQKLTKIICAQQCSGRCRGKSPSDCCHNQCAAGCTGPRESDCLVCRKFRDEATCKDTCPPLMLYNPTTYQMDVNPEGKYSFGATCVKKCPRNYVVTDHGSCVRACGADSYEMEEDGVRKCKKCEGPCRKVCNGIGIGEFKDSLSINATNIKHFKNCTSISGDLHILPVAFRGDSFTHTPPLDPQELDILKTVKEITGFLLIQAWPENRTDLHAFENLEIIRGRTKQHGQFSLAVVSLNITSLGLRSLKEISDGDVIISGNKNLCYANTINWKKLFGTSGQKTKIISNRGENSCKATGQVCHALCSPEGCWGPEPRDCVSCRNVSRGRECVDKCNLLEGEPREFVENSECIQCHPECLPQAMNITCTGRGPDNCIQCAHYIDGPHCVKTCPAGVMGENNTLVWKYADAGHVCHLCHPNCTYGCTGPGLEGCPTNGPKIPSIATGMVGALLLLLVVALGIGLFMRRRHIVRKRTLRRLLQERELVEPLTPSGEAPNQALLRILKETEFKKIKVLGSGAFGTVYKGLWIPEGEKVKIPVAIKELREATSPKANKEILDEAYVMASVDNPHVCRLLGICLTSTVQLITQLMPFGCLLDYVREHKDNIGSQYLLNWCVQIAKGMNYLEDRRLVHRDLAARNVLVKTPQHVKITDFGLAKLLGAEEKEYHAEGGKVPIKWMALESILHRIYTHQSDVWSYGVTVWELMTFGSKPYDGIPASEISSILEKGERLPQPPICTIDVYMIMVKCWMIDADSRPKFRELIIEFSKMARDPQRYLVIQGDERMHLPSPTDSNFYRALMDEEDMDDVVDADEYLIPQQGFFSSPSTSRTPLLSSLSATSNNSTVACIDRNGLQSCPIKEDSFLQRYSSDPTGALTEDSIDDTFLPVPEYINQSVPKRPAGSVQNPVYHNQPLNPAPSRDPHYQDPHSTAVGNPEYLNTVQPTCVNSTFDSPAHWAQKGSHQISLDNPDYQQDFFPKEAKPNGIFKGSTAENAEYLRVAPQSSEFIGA

One may read the IC50 as the concentration that gives 50% inhibition. Higher therefore signals lower potency. Consider `COc1cc(NCC2CCN(C)CC2)c(-c2cnn(C)c2)cc1Nc1ncc(Br)c(Nc2ccc3nc(C4CC4)ccc3c2P(C)(C)=O)n1` [Compound J-052], for which the IC50 in test [1] was 279 nM. For the same compound, the figures for the GI50 at Ba/F3-Δ19del/T790M/C797S and at Ba/F3 EGFR WT were 2.6 nM and 123 nM, respectively.
In the case of `COc1ncc(N2CCN(c3cc(OC)c(Nc4ncc(Br)c(Nc5ccc6nc(C7CC7)ccc6c5P(C)(C)=O)n4)cc3-c3cnn(C)c3)CC2)cn1` [Compound J-044, (6-((5-Bromo-2-((2-methoxy-4-(4-(2-methoxypyrimidin-5-yl)piperazin-1-yl)-5-(1-methyl-1H-pyrazol-4-yl)phenyl)amino)pyrimidin-4-yl)amino)-2-cyclopropylquinolin-5-yl)dimethylphosphine oxide], the half-maximal inhibitory concentration (IC50) in test [1] is 432 nM. The GI50 on Ba/F3-Δ19del/T790M/C797S was found to be 1 nM; on Ba/F3 EGFR WT, 25.2 nM.
The matching figures for `COc1cc(N2CCN(C)CC2)c(-c2cnn(C)c2)cc1Nc1ncc(Br)c(Nc2ccc3nc(C4CC4)ccc3c2P(C)(C)=O)n1` [Compound J-054, (6-((5-Bromo-2-((2-methoxy-5-(1-methyl-1H-pyrazol-4-yl)-4-(4-methylpiperazin-1-yl)phenyl)amino)pyrimidin-4-yl)amino)-2-cyclopropylquinolin-5-yl)dimethylphosphine oxide]: 143 nM, 0.8 nM and 15.8 nM.
For the compound `COc1cc(NCC2CCOCC2)c(-c2cnn(C)c2)cc1Nc1ncc(Br)c(Nc2ccc3nc(C4CC4)ccc3c2P(C)(C)=O)n1` [Compound J-053, (6-((5-Bromo-2-((2-methoxy-5-(1-methyl-1H-pyrazol-4-yl)-4-(((tetrahydro-2H-pyran-4-yl)methyl)amino)phenyl)amino)pyrimidin-4-yl)amino)-2-cyclopropylquinolin-5-yl)dimethylphosphine oxide], in test [1], the IC50 was 753 nM. The GI50 is 3.9 nM on Ba/F3-Δ19del/T790M/C797S and 54 nM on Ba/F3 EGFR WT.
Compound `COc1cc(N2CCN(c3cnccn3)CC2)c(-c2cnn(C)c2)cc1Nc1ncc(Br)c(Nc2ccc3nc(C4CC4)ccc3c2P(C)(C)=O)n1` [Compound J-058, (6-((5-Bromo-2-((2-methoxy-5-(1-methyl-1H-pyrazol-4-yl)-4-(4-(pyrazin-2-yl)piperazin-1-yl)phenyl)amino)pyrimidin-4-yl)amino)-2-cyclopropylquinolin-5-yl)dimethylphosphine oxide] had an IC50 in test [1] of 649 nM. For the same compound, the GI50 was found to be 5.8 nM at Ba/F3-Δ19del/T790M/C797S and 117 nM on Ba/F3 EGFR WT.
Regarding `COc1cc(N2CCN(c3nccs3)CC2)c(-c2cnn(C)c2)cc1Nc1ncc(Br)c(Nc2ccc3nc(C4CC4)ccc3c2P(C)(C)=O)n1` [Compound J-048, (6-((5-Bromo-2-((2-methoxy-5-(1-methyl-1H-pyrazol-4-yl)-4-(4-(thiazol-2-yl)piperazin-1-yl)phenyl)amino)pyrimidin-4-yl)amino)-2-cyclopropylquinolin-5-yl)dimethylphosphine oxide], half-maximal inhibition in test [1] (IC50) was put at 1100 nM. For the same compound, the GI50 was 7.6 nM at Ba/F3-Δ19del/T790M/C797S and 52 nM at Ba/F3 EGFR WT.
For `COc1cc(N2CCC(N3CCN(C)CC3)CC2)c(-c2ccn(C)c2)cc1Nc1ncc(Br)c(Nc2ccc3nc(C4CC4)ccc3c2P(C)(C)=O)n1` [Compound J-064, (6-((5-Bromo-2-((2-methoxy-5-(1-methyl-1H-pyrrol-3-yl)-4-(4-(4-methylpiperazine-1-yl)piperidin-1-yl)phenyl)amino)pyrimidin-4-yl)amino)-2-cyclopropylquinolin-5-yl)dimethylphosphine oxide], it took 128 nM to reach half-maximal inhibition in test [1] (IC50). Also, the GI50 worked out at 1.1 nM on Ba/F3-Δ19del/T790M/C797S and 14.6 nM on Ba/F3 EGFR WT.
In test [1], `COc1cc(N2CCC(N3CCN(C)CC3)CC2)c(-c2cnn(C)n2)cc1Nc1ncc(Br)c(Nc2ccc3nc(C4CC4)ccc3c2P(C)(C)=O)n1` [Compound J-046, (6-((5-Bromo-2-((2-methoxy-5-(2-methyl-2H-1,2,3-triazol-4-yl)-4-(4-(4-methylpiperazin-1-yl)piperidin-1-yl)phenyl)amino)pyrimidin-4-yl)amino)-2-cyclopropylquinolin-5-yl)dimethylphosphine oxide] came in with an IC50 of 475 nM. Besides, the GI50 on Ba/F3-Δ19del/T790M/C797S is 1.2 nM; at Ba/F3 EGFR WT it was 117 nM.
The matching figures for `COc1cc(N2CCN(c3ccncc3)CC2)c(-c2cnn(C)n2)cc1Nc1ncc(Br)c(Nc2ccc3nc(C4CC4)ccc3c2P(C)(C)=O)n1` [Compound J-047, (6-((5-Bromo-2-((2-methoxy-5-(2-methyl-2H-1,2,3-triazol-4-yl)-4-(4-(pyridin-4-yl)piperazin-1-yl)phenyl)amino)pyrimidin-4-yl)amino)-2-cyclopropylquinolin-5-yl)dimethylphosphine oxide]: 176 nM, 0.5 nM and 21 nM.
In test [1], `COc1cc(N2CCC(N3CCN(C)CC3)CC2)c(-c2cnn(C)c2)cc1Nc1ncc(Br)c(Nc2ccc3nc(C4CC4)ccc3c2P(C)(C)=O)n1` [Compound J-068, (6-((5-Bromo-2-((2-methoxy-5-(1-methyl-1H-pyrazol-4-yl)-4-(4-(4-methylpiperazine-1-yl)piperidin-1-yl)phenyl)amino)pyrimidin-4-yl)amino)-2-cyclopropylquinolin-5-yl)dimethylphosphine oxide] came in with an IC50 of 201 nM. The GI50 at Ba/F3-Δ19del/T790M/C797S was determined as 1 nM; on Ba/F3 EGFR WT, 33.2 nM.
As for `COc1cc(N2CCC(N3CCN(C)CC3)CC2)c(-c2cnn(C(F)F)c2)cc1Nc1ncc(Br)c(Nc2ccc3nc(C4CC4)ccc3c2P(C)(C)=O)n1` [Compound J-067, (6-((5-bromo-2-((5-(1-(difluoromethyl)-1H-pyrazol-4-yl)-2-methoxy-4-(4-(4-methylpiperazin-1-yl)piperidin-1-yl)phenyl)amino)pyrimidin-4-yl)amino)-2-cyclopropylquinolin-5-yl)dimethylphosphine oxide], the IC50 in test [1] was 632 nM. Moreover, the GI50 on Ba/F3-Δ19del/T790M/C797S was 2.4 nM; at Ba/F3 EGFR WT, 37.3 nM.
The matching figures for `COc1cc(N2CCC(N3CCOCC3)CC2)c(-c2cnn(C)c2)cc1Nc1ncc(Br)c(Nc2ccc3nc(C4CC4)ccc3c2P(C)(C)=O)n1` [Compound J-059, (6-((5-Bromo-2-((2-methoxy-5-(1-methyl-1H-pyrazol-4-yl)-4-(4-morpholinopiperidine-1-yl)phenyl)amino)pyrimidin-4-yl)amino)-2-cyclopropylquinolin-5-yl)dimethylphosphine oxide]: 264 nM, 0.4 nM and 10.6 nM.
In test [1], `COc1cc(N2CCN(c3ccncn3)CC2)c(-c2cnn(C)c2)cc1Nc1ncc(Br)c(Nc2ccc3nc(C4CC4)ccc3c2P(C)(C)=O)n1` [Compound J-060, (6-((5-Bromo-2-((2-methoxy-5-(1-methyl-1H-pyrazol-4-yl)-4-(4-(pyrimidin-4-yl)piperazin-1-yl)phenyl)amino)pyrimidin-4-yl)amino)-2-cyclopropylquinolin-5-yl)dimethylphosphine oxide] returned an IC50 of 366 nM. Moreover, the GI50 was 2.3 nM at Ba/F3-Δ19del/T790M/C797S and 54 nM on Ba/F3 EGFR WT.
With `COc1cc(N2CCN(C3CCCC3)CC2)c(-c2cnn(C)c2)cc1Nc1ncc(Br)c(Nc2ccc3nc(C4CC4)ccc3c2P(C)(C)=O)n1` [Compound J-055, (6-((5-Bromo-2-((4-(4-cyclopentylpiperazin-1-yl)-2-methoxy-5-(1-methyl-1H-pyrazol-4-yl)phenyl)amino)pyrimidin-4-yl)amino)-2-cyclopropylquinolin-5-yl)dimethylphosphine oxide], the GI50 on Ba/F3-Δ19del/T790M/C797S is 12.4 nM; on Ba/F3 EGFR WT, 79 nM.
